Data: ChEMBL document CHEMBL2440112, “Structure-activity relationships of the aromatic site in novel anticonvulsant pyrrolo[1,2-a]pyrazine derivatives” (Bioorg Med Chem Lett, 2013)
Active and inactive are the calls of the source. No cut-off for these calls is given here.

Assays:
[1] = tested on: Mus musculus; test: Anticonvulsant activity in albino mouse assessed as protection against subcutaneous metrazole-induced seizures at 100 mg/kg, ip after 0.5 hrs; format: functional, organism-based; parameters: dose 100 mg/kg
[2] = tested on: Mus musculus; test: Anticonvulsant activity in albino mouse assessed as protection against subcutaneous metrazole-induced seizures at 100 mg/kg, ip after 1 hr; format: functional, organism-based; parameters: dose 100 mg/kg
[3] = tested on: Mus musculus; test: Anticonvulsant activity in albino mouse assessed as protection against subcutaneous metrazole-induced seizures at 100 mg/kg, ip after 0.25 hrs; format: functional, organism-based; parameters: dose 100 mg/kg
[4] = tested on: Rattus norvegicus; test: Anticonvulsant activity in albino Sprague-Dawley rat assessed as protection against maximal electroshock-induced seizures at 30 mg/kg, ip after 4 hrs; format: functional, organism-based; parameters: dose 30 mg/kg
[5] = tested on: Rattus norvegicus; test: Anticonvulsant activity in albino Sprague-Dawley rat assessed as protection against maximal electroshock-induced seizures at 30 mg/kg, ip after 2 hrs; format: functional, organism-based; parameters: dose 30 mg/kg
[6] = tested on: Mus musculus; test: Neurotoxicity in albino mouse assessed as minimal motor impairment at 100 mg/kg, ip after 0.5 hrs by rotorod test; format: toxicity, organism-based; parameters: dose 100 mg/kg, route intraperitoneal; details: in vivo
[7] = tested on: Mus musculus; test: Neurotoxicity in albino mouse minimal clonic seizure model assessed as minimal motor impairment at 100 mg/kg, ip after 2 hrs by rotorod test; format: toxicity, organism-based; parameters: dose 100 mg/kg, route intraperitoneal; details: in vivo
[8] = tested on: Mus musculus; test: Neurotoxicity in albino mouse minimal clonic seizure model assessed as minimal motor impairment at 100 mg/kg, ip after 0.5 hrs by rotorod test; format: toxicity, organism-based; parameters: dose 100 mg/kg, route intraperitoneal; details: in vivo
[9] = tested on: Rattus norvegicus; test: Neurotoxicity in albino Sprague-Dawley rat assessed as minimal motor impairment at 30 mg/kg, ip after 4 hrs by rotorod test; format: toxicity, organism-based; parameters: dose 30 mg/kg, route intraperitoneal; details: in vivo
[10] = tested on: Mus musculus; test: Anticonvulsant activity in albino mouse assessed as protection against 6 Hz psychomotor seizure at 100 mg/kg, ip after 4 hrs by minimal clonic seizure test; format: functional, organism-based; parameters: dose 100 mg/kg
[11] = tested on: Mus musculus; test: Neurotoxicity in albino mouse assessed as minimal motor impairment at 100 mg/kg, ip after 1 hr by rotorod test; format: toxicity, organism-based; parameters: dose 100 mg/kg, route intraperitoneal; details: in vivo
[12] = tested on: Rattus norvegicus; test: Neurotoxicity in albino Sprague-Dawley rat assessed as minimal motor impairment at 30 mg/kg, ip after 0.25 hrs by rotorod test; format: toxicity, organism-based; parameters: dose 30 mg/kg, route intraperitoneal; details: in vivo
[13] = tested on: Mus musculus; test: Neurotoxicity in albino mouse assessed as minimal motor impairment at 100 mg/kg, ip after 0.25 hrs by rotorod test; format: toxicity, organism-based; parameters: dose 100 mg/kg, route intraperitoneal; details: in vivo
[14] = tested on: Rattus norvegicus; test: Neurotoxicity in albino Sprague-Dawley rat assessed as minimal motor impairment at 30 mg/kg, ip after 2 hrs by rotorod test; format: toxicity, organism-based; parameters: dose 30 mg/kg, route intraperitoneal; details: in vivo
[15] = tested on: Rattus norvegicus; test: Anticonvulsant activity in albino Sprague-Dawley rat assessed as protection against maximal electroshock-induced seizures at 30 mg/kg, ip after 0.5 hrs; format: functional, organism-based; parameters: dose 30 mg/kg
[16] = tested on: Rattus norvegicus; test: Anticonvulsant activity in albino Sprague-Dawley rat assessed as protection against maximal electroshock-induced seizures at 30 mg/kg, ip after 1 hr; format: functional, organism-based; parameters: dose 30 mg/kg
[17] = tested on: Mus musculus; test: Anticonvulsant activity in albino mouse assessed as protection against 6 Hz psychomotor seizure at 100 mg/kg, ip after 0.25 hrs by minimal clonic seizure test; format: functional, organism-based; parameters: dose 100 mg/kg
[18] = tested on: Mus musculus; test: Neurotoxicity in albino mouse assessed as minimal motor impairment at 100 mg/kg, ip after 4 hrs by rotorod test; format: toxicity, organism-based; parameters: dose 100 mg/kg, route intraperitoneal; details: in vivo
[19] = tested on: Mus musculus; test: Neurotoxicity in albino mouse minimal clonic seizure model assessed as minimal motor impairment at 100 mg/kg, ip after 4 hrs by rotorod test; format: toxicity, organism-based; parameters: dose 100 mg/kg, route intraperitoneal; details: in vivo
[20] = tested on: Rattus norvegicus; test: Neurotoxicity in albino Sprague-Dawley rat assessed as minimal motor impairment at 30 mg/kg, ip after 0.5 hrs by rotorod test; format: toxicity, organism-based; parameters: dose 30 mg/kg, route intraperitoneal; details: in vivo
[21] = tested on: Mus musculus; test: Anticonvulsant activity in albino mouse assessed as protection against 6 Hz psychomotor seizure at 100 mg/kg, ip after 2 hrs by minimal clonic seizure test; format: functional, organism-based; parameters: dose 100 mg/kg
[22] = tested on: Mus musculus; test: Anticonvulsant activity in albino mouse assessed as protection against 6 Hz psychomotor seizure at 100 mg/kg, ip after 1 hr by minimal clonic seizure test; format: functional, organism-based; parameters: dose 100 mg/kg
[23] = tested on: Mus musculus; test: Anticonvulsant activity in albino mouse assessed as protection against 6 Hz psychomotor seizure at 100 mg/kg, ip after 0.5 hrs by minimal clonic seizure test; format: functional, organism-based; parameters: dose 100 mg/kg
[24] = tested on: Rattus norvegicus; test: Anticonvulsant activity in albino Sprague-Dawley rat assessed as protection against maximal electroshock-induced seizures at 30 mg/kg, ip after 0.25 hrs; format: functional, organism-based; parameters: dose 30 mg/kg
[25] = tested on: Mus musculus; test: Neurotoxicity in albino mouse minimal clonic seizure model assessed as minimal motor impairment at 100 mg/kg, ip after 0.25 hrs by rotorod test; format: toxicity, organism-based; parameters: dose 100 mg/kg, route intraperitoneal; details: in vivo
[26] = tested on: Mus musculus; test: Neurotoxicity in albino mouse minimal clonic seizure model assessed as minimal motor impairment at 100 mg/kg, ip after 1 hr by rotorod test; format: toxicity, organism-based; parameters: dose 100 mg/kg, route intraperitoneal; details: in vivo
[27] = tested on: Rattus norvegicus; test: Anticonvulsant activity in po dosed albino Sprague-Dawley rat assessed as protection against maximal electroshock-induced seizures after […] to 4 hrs; format: functional, organism-based
[28] = tested on: Rattus norvegicus; test: Neurotoxicity in albino Sprague-Dawley rat assessed as minimal motor impairment at 30 mg/kg, ip after 1 hr by rotorod test; format: toxicity, organism-based; parameters: dose 30 mg/kg, route intraperitoneal; details: in vivo
[29] = tested on: Mus musculus; test: Anticonvulsant activity in albino mouse assessed as protection against maximal electroshock-induced seizures at 100 mg/kg, ip after 4 hrs; format: functional, organism-based; parameters: dose 100 mg/kg
[30] = tested on: Mus musculus; test: Anticonvulsant activity in albino mouse assessed as protection against maximal electroshock-induced seizures at 100 mg/kg, ip after 0.5 hrs; format: functional, organism-based; parameters: dose 100 mg/kg
[31] = tested on: Mus musculus; test: Anticonvulsant activity in albino mouse assessed as protection against subcutaneous metrazole-induced seizures at 100 mg/kg, ip after 4 hrs; format: functional, organism-based; parameters: dose 100 mg/kg
[32] = tested on: Mus musculus; test: Anticonvulsant activity in albino mouse assessed as protection against maximal electroshock-induced seizures at 100 mg/kg, ip after 1 hr; format: functional, organism-based; parameters: dose 100 mg/kg
[33] = tested on: Mus musculus; test: Anticonvulsant activity in albino mouse assessed as protection against maximal electroshock-induced seizures at 100 mg/kg, ip after 0.25 hrs; format: functional, organism-based; parameters: dose 100 mg/kg
[34] = tested on: Mus musculus; test: Anticonvulsant activity in ip dosed albino mouse assessed as protection against 6 Hz psychomotor seizure by minimal clonic seizure test; format: functional
[35] = tested on: Mus musculus; test: Anticonvulsant activity in ip dosed albino mouse assessed as time of peak effect for protection against 6 Hz psychomotor seizure by minimal clonic seizure test; format: functional
[36] = Neurotoxicity in ip dosed albino mouse minimal clonic seizure model assessed as minimal motor impairment by rotorod test; format: toxicity, organism-based; details: in vivo

Compound: Cc1cccc([C@H]2C(=O)NC(=O)[C@@H]3CCCN23)c1
- Activity [1]: inactive
- Activity [2]: inactive
- Activity [3]: Active
- Activity [4]: inactive
- Activity [5]: inactive
- Activity [6]: Non-toxic
- Activity [7]: Non-toxic
- Activity [8]: Non-toxic
- Activity [9]: Non-toxic
- Activity [10]: inactive
- Activity [11]: Non-toxic
- Activity [12]: Non-toxic
- Activity [13]: Toxic
- Activity [14]: Non-toxic
- Activity [15]: inactive
- Activity [16]: inactive
- Activity [17]: Active
- Activity [18]: Non-toxic
- Activity [19]: Non-toxic
- Activity [20]: Non-toxic
- Activity [21]: inactive
- Activity [22]: inactive
- Activity [23]: Active
- Activity [24]: inactive
- Activity [25]: Toxic
- Activity [26]: Non-toxic
- Activity [27]: inactive
- Activity [28]: Non-toxic
- Activity [29]: inactive
- Activity [30]: Active
- Activity [31]: inactive
- Activity [32]: inactive
- Activity [33]: Active

Compound: COc1ccccc1[C@H]1C(=O)NC(=O)[C@@H]2CCCN12
- Activity [1]: inactive
- Activity [6]: Non-toxic
- Activity [7]: Non-toxic
- Activity [8]: Non-toxic
- Activity [10]: inactive
- Activity [11]: Non-toxic
- Activity [13]: Non-toxic
- Activity [17]: Active
- Activity [18]: Non-toxic
- Activity [19]: Non-toxic
- Activity [21]: inactive
- Activity [22]: Active
- Activity [23]: Active
- Activity [25]: Non-toxic
- Activity [26]: Non-toxic
- Activity [27]: inactive
- Activity [29]: inactive
- Activity [30]: inactive
- Activity [31]: inactive
- Activity [32]: inactive
- Activity [33]: inactive

Compound: O=C1NC(=O)C(c2ccccc2)(c2ccccc2)N1 [PHENYTOIN]
- ED50 [34]: > 60 mg/kg

Compound: O=C1NC(=O)[C@@H]2CCCN2[C@H]1c1ccco1
- Activity [1]: inactive
- Activity [6]: Toxic
- Activity [18]: Non-toxic
- Activity [27]: inactive
- Activity [29]: inactive
- Activity [30]: inactive
- Activity [31]: inactive

Compound: CC[C@@H](C(N)=O)N1CCCC1=O
- Time [35]: 1 h
- TD50 [36]: > 500 mg/kg

Compound: COc1ccc([C@H]2C(=O)NC(=O)[C@@H]3CCCN23)cc1
- Activity [1]: inactive
- Activity [6]: Non-toxic
- Activity [11]: Non-toxic
- Activity [13]: Non-toxic
- Activity [18]: Non-toxic
- Activity [27]: inactive
- Activity [29]: inactive
- Activity [30]: inactive
- Activity [31]: inactive
- Activity [32]: inactive
- Activity [33]: inactive

Compound: O=C1NC(=O)[C@@H]2CCCN2[C@H]1c1ccc2ccccc2c1
- Activity [1]: inactive
- Activity [6]: Non-toxic
- Activity [18]: Non-toxic
- Activity [27]: inactive
- Activity [29]: inactive
- Activity [30]: inactive
- Activity [31]: inactive
